Non-standard residues stand in square brackets, D forms with d. Residues, ends and D or L forms follow the SMILES beside them. *: point of attachment. ACC = NC(=O)Cc1cc(=O)oc2cc(N*)ccc12; AMC = Cc1cc(=O)oc2cc(N*)ccc12; Nle = CCCC[C@H](N)C(=O)O; CH2Cl = ClC*

For data set [1], the target named is T1, thrombin (Homo sapiens, UniProt P00734).
T1 construct: Human thrombin, plasmin, and factor Xa were used as received; purchased Haematologic Technologies Inc. (Essex Jct., Vt.)
Put plainly: Single substrate kinetic assay with thrombin (ACC vs AMC leaving group). Format: biochemical. Conditions: thrombin 5-20 nM. The procedure:
(§1) Thrombin concentration ranged from 5-20 nM. The final concentration of substrate ranged from 0.005-2 mM, the concentration of DMSO in the assay was less than 5%. Hydrolysis of AMC and ACC substrates was monitored fluorometrically with an excitation wavelength of 380 nm and emission wavelength of 460 nm on a Fluoromax-2 spectrofluorometer. Cruzain (10 nM) was incubated with 600 μM of the Ac-Leu-Thr-Phe-Lys-ACC substrate. Aliquots were removed at various time points and applied to a C-18 reverse-phase HPLC column with a 10-40% gradient of 95:4.9:0.1 Acetonitrile:H2O:TFA. MALDI (PE Biosystems Voyager) mass spectrometry data was collected on the HPLC fractions.

Data set [2] concerns the target T2, βI Tryptase (Homo sapiens, UniProt Q15661).
T2 construct: Secreted mature βI and βII tryptases were purified to homogeneity; made in house; host or cells: Pichia pastoris GS115
As to the kind of experiment: Single substrate kinetic analysis, βI tryptase. Format: biochemical. The following applies: for Km: βI Tryptase, 30° C., pH 7.5. The procedure:
(§2) Tryptase activity was monitored at 30° C. in assay buffer containing 100 mM HEPES pH 7.5 and 10% glycerol. Substrate stock solutions were prepared in DMSO. The final concentration of substrate ranged from 0.005-2 mM. The concentration of DMSO in the assay was less than 5%. The tryptase concentration was 5 nM. Hydrolysis of ACC substrates was monitored fluorometrically with an excitation wavelength of 380 nm and emission wavelength of 450 nm on a Fluoromax-2 spectrofluorimeter (JY Horiba).

In data set [3] the target is T3, βII Tryptase (Homo sapiens, UniProt Q15661, N132K).
T3 construct: Secreted mature βI and βII tryptases were purified to homogeneity; made in house; host or cells: Pichia pastoris GS115
T3 sequence (Q15661 31-275 N132K): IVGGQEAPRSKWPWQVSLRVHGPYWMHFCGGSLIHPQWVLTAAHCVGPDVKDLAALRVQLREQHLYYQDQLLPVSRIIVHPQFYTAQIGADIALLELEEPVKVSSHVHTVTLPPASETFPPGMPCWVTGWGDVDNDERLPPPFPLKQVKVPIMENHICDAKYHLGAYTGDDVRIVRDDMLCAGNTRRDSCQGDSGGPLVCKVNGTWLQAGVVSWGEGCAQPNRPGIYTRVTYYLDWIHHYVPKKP
Put plainly: Single substrate kinetic analysis, βII tryptase. Conditions: for Km: βII Tryptase, 30° C., pH 7.5. Format: biochemical. The procedure: as §2

The target of data set [4] is T4, cruzain (Trypanosoma cruzi, UniProt P25779).
T4 construct: made in house
T4 sequence (P25779 123-337): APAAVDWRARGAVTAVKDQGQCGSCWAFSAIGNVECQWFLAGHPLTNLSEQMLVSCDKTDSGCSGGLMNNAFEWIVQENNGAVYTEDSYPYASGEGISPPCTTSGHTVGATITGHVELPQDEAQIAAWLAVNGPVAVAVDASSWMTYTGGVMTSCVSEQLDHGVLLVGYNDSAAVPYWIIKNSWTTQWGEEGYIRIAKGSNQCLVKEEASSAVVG
Put plainly: Incubation of single substrate with cruzain and analysis of cleavage products (HPLC, MALDI). In kind it is biochemical. Conditions: cruzain 10 nM, 600 μM substrate; data not shown. The procedure:
as §1

Data set [5] is described as follows: Fluorescence properties of free and peptidyl-derivatized ACC and AMC. In kind it is physicochemical. The following applies: for λmax, em / λmax, ex: 25° C.; for RFU/nM1 / RFU/nM2: λex = 380 nm; for RFU/nM1: λem = 450 nm; for RFU/nM2: λem = 460 nm. The method, then:
The fluorescence of free ACC and peptidyl-derivatized ACC was detected on a Spex fluorometer thermostated to 25° C. Excitation wavelengths of 300-410 nm, 5 nm intervals, were used with emission wavelengths of 410-500 nm, 5 nm intervals, to determine optimal excitation and emission parameters.

In data set [6] the target is T2, βI Tryptase. Put plainly: Irreversible inhibitor kinetic analysis (progress curves), βI tryptase. Format: biochemical. Conditions: tryptase 1 nM, 30° C., 100 μM Ac-PRNK-ACC substrate. The procedure:
(§3) Progress curves were obtained for tryptase (1 nM) inactivation by multiple concentrations of Ac-PRNK-cmk (50 nM to 10 μM). Activity was monitored at 30° C. in activity buffer with 100 μM Ac-PRNK-ACC substrate. The rate constant for loss of enzyme activity, kobs, was determined from a non-linear regression of the progress curve data. kobs varied linearly with inhibitor concentration. Therefore, kass, the rate constant for the inactivation of enzyme with inhibitor, was determined by linear regression analysis (Bieth, J. G. Methods in Enzymology 248: 59-84 (1995)). Several P1-basic-preferring proteases were monitored for inhibition by Ac-PRNK-cmk as follows: tryptase bI (50 nM), tryptase bII (50 nM), factor Xa (50 nM), tPA (50 nM), uPA (50 nM), thrombin (1 nM), and plasmin (5 nM) were incubated for 5 minutes with 0 μM, 10 μM, 100 μM Ac-PRNK-cmk. After incubation, residual activity was monitored as follows: Ac-PRNK-ACC was added to a final concentration of 5 μM to the samples containing tryptase βI and βII; Ac-GTAR-ACC (5 μM) was added to the factor Xa and tPA samples; Ac-QFAR-ACC (5 μM) was added to the uPA samples; Ac-nTPR-ACC (5 μM) was added to the thrombin samples; and Ac-KQWK-ACC (5 μM) was added to plasmin samples.
(§4) Progress curves were obtained for tryptase (1 nM) inactivation by multiple concentrations of Ac-PRNK-cmk (50 nM to 10 μM). […]

The target of data set [7] is T3, βII Tryptase. As to the kind of experiment: Irreversible inhibitor kinetic analysis (progress curves), βII tryptase. Format: biochemical. Conditions: tryptase 1 nM, 30° C., 100 μM Ac-PRNK-ACC substrate. The method, then:
as §3, §4

Data set [8] deals with T5, Plasmin (Homo sapiens, UniProt P00747).
T5 construct: Human thrombin, plasmin, and factor Xa were used as received; purchased Haematologic Technologies Inc. (Essex Jct., Vt.)
T5 sequence (P00747 581-810 limits assumed): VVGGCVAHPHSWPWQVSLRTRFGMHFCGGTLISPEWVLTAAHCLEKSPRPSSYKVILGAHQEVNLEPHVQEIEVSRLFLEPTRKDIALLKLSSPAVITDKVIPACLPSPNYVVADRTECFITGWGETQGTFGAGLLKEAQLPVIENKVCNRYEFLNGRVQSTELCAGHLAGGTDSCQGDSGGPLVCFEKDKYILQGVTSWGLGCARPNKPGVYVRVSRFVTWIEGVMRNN
T5 sequence (P00747 97-580 partner limits assumed): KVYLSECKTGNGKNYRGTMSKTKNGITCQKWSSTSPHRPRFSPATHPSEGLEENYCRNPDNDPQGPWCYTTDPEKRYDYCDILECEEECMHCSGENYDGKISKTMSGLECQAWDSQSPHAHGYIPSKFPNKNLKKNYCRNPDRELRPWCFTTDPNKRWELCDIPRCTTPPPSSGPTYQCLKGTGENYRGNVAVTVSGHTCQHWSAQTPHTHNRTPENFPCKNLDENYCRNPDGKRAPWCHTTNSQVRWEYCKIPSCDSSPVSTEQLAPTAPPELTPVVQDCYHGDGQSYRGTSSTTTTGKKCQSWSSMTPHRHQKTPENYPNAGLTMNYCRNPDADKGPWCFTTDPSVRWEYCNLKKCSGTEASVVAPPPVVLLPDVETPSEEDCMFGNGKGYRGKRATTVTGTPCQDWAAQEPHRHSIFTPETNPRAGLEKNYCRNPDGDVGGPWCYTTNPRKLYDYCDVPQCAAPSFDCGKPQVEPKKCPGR
Put plainly: Protease inhibition by Ac-PRNK-cmk, residual activity. In kind it is biochemical. Conditions: 100 μM Ac-PRNK-cmk, 5 minutes incubation, enzyme 5 nM. The procedure:
as §3
as §3, with “(Bieth” for “(Bieth, J. G. Methods in Enzymology 248: 59-84”, “bIl” for “bII”

The target in data set [9] is T6, Tryptase βI (Homo sapiens, UniProt Q15661).
T6 construct: Secreted mature βI and βII tryptases were purified to homogeneity; made in house; host or cells: Pichia pastoris GS115
T6 sequence (Q15661 31-275): as the sequence (Q15661 31-275 N132K) above, with K102N counted along it
Described as above. Format: biochemical. The following applies: 10 μM Ac-PRNK-cmk, 5 minutes incubation, enzyme 50 nM. The method, then: as §3
as §3, with “(Bieth” for “(Bieth, J. G. Methods in Enzymology 248: 59-84”, “bIl” for “bII”

Data set [10] deals with T7, Tryptase βII (Homo sapiens, UniProt Q15661, N132K).
T7 construct: Secreted mature βI and βII tryptases were purified to homogeneity; made in house; host or cells: Pichia pastoris GS115
T7 sequence (Q15661 31-275 N132K): as the sequence (Q15661 31-275 N132K) above
Described as above. Format: biochemical. The following applies: 10 μM Ac-PRNK-cmk, 5 minutes incubation, enzyme 50 nM. The method, then:
as §3
as §3, with “(Bieth” for “(Bieth, J. G. Methods in Enzymology 248: 59-84”, “bIl” for “bII”

Data set [11] deals with T8, tPA (Homo sapiens, UniProt P00750).
T8 construct: purchased American Diagnostica (Greenwich, Conn.)
T8 sequence (P00750 36-562): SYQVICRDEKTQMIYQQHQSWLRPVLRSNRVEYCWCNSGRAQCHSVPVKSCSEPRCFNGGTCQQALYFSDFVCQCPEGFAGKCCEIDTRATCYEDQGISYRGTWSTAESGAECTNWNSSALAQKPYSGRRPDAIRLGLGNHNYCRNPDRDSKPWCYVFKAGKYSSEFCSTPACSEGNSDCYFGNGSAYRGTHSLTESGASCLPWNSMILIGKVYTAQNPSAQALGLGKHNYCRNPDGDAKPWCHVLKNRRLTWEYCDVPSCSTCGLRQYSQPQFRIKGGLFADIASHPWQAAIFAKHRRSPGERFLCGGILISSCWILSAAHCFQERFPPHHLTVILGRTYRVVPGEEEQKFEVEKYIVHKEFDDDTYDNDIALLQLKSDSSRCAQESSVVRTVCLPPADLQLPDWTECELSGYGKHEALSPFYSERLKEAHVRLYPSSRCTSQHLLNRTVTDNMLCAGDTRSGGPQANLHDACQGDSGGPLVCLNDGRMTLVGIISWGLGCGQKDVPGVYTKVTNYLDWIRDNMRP
The data set is described as above. Format: biochemical. The following applies: 100 μM Ac-PRNK-cmk, 5 minutes incubation, enzyme 50 nM. The method, then:
as §3
as §3, with “(Bieth” for “(Bieth, J. G. Methods in Enzymology 248: 59-84”, “bIl” for “bII”

Data set [12] deals with T1, thrombin. The data set is described as above. The following applies: 100 μM Ac-PRNK-cmk, 5 minutes incubation, enzyme 1 nM. Format: biochemical. The procedure: as §3
as §3, with “(Bieth” for “(Bieth, J. G. Methods in Enzymology 248: 59-84”, “bIl” for “bII”

The target in data set [13] is T9, uPA (Homo sapiens, UniProt P00749).
T9 construct: purchased American Diagnostica (Greenwich, Conn.) or Calbiochem (San Diego, Calif.)
Described as above. In kind it is biochemical. The following applies: 100 μM Ac-PRNK-cmk, 5 minutes incubation, enzyme 50 nM. The method, then:
as §3
as §3, with “(Bieth” for “(Bieth, J. G. Methods in Enzymology 248: 59-84”, “bIl” for “bII”

For data set [14], the system named is Factor Xa. The data set is described as above. In kind it is biochemical, human. Conditions: 100 μM Ac-PRNK-cmk, 5 minutes incubation, enzyme 50 nM. The procedure:
as §3, §4

Where [15] appears, read: range stated over tryptase βI and βII.

T2 sequence (Q15661 31-275): as the sequence (Q15661 31-275 N132K) above, with K102N counted along it

One may read the Km as the substrate concentration at which the rate is half of its maximum. What is called kcat is the number of substrate molecules converted per active site and unit of time at saturation. On to `CCCC[C@H](NC(C)=O)C(=O)N[C@H](C(=O)N1CCC[C@H]1C(=O)N[C@@H](CCCCN)C(=O)Nc1ccc2c(C)cc(=O)oc2c1)[C@@H](C)O` [Ac-Nle-Thr-Pro-Lys-AMC] (Ac-[Nle]TPK-{AMC}), for which, in data set [1], the Km was found to be 115 ± 10 µM and the kcat came out at 31.0 ± 0.9 s⁻¹.

For the molecule `CC(=O)N1CCC[C@H]1C(=O)N[C@@H](CCCNC(=N)N)C(=O)N[C@@H](CC(N)=O)C(=O)N[C@@H](CCCNC(=N)N)C(=O)Nc1ccc2c(CC(N)=O)cc(=O)oc2c1` [Ac-PRNR-ACC] (Ac-PRNR-{ACC}), the “activity relative to Ac-PRNK-ACC substrate” value in data set [2] (setting [15]) and in data set [3] (setting [15]) was 70-90% each time. For the same molecule, the values for the Km in [2] and in data set [3] were 16.5 ± 2.7 µM and 18.6 ± 2.6 µM, respectively.

In the case of “Ac-Leu-Thr-Phe-Lys-ACC (Ac-LTFK-{ACC}; SMILES CC(=O)N[C@@H](CC(C)C)C(=O)N[C@H](C(=O)N[C@@H](Cc1ccccc1)C(=O)N[C@@H](CCCCN)C(=O)Nc1ccc2c(CC(N)=O)cc(=O)oc2c1)[C@@H](C)O)”, the cleavage products observed entry in data set [4] is given as “cleavage between Thr-Phe”.

On to 7-Nle-Thr-Pro-Lys-ACC, for which, in data set [5], the “λmax, em” value was 400 nm; the “λmax, ex” value is given as 325 nm; the RFU/nM1 was 6.4 RFU/nM; the RFU/nM2 was determined as 4.6 RFU/nM.

Regarding Ac-PRNK-CH2Cl, the “association rate constant, kass” value in data set [6] and in [7] was 5000 ± 200 M⁻¹ s⁻¹ each time. Also, the “Percent Inhibition” value is 63 in data set [8]; 95 in data set [9]; 95 in [10]; 0 in data set [11]; 0 in [12]; 34 in data set [13]. In addition, the “Percent Inhibition” value in [14] came out at 0.

In the case of `NC(=O)Cc1cc(=O)oc2cc(N)ccc12` [7-Amino-4-Carbamoylmethyl-coumarin (ACC), 7-amino-4-carbamoylmethyl-coumarin], in data set [5], the “λmax, em” value stood at 450 nm; the “λmax, ex” value is 350 nm; the RFU/nM1 amounted to 5750 RFU/nM; the RFU/nM2 was found to be 4390 RFU/nM. Besides, the “fluorescence yield relative to the AMC coumarin” value in data set [5] (excitation 380 nm, emission 460 nm) is given as “approximately 2.8 fold”.

Take `CC(=O)N1CCC[C@H]1C(=O)N[C@@H](CCCNC(=N)N)C(=O)N[C@@H](CC(N)=O)C(=O)N[C@@H](CCCCN)C(=O)Nc1ccc2c(CC(N)=O)cc(=O)oc2c1` [Ac-PRNK-ACC] (Ac-PRNK-{ACC}): the values for the Km in [2] and in data set [3] were 8.9 ± 0.9 µM and 14.5 ± 1.9 µM, respectively.

Turning to `CCCC[C@H](NC(C)=O)C(=O)N[C@H](C(=O)N1CCC[C@H]1C(=O)N[C@@H](CCCCN)C(=O)Nc1ccc2c(CC(N)=O)cc(=O)oc2c1)[C@@H](C)O` [Ac-Nle Thr-Pro-Lys--ACC] (Ac-[Nle]TPK-{ACC}), in data set [1], the Michaelis constant (Km) was 125 ± 13 µM.

Consider `CC(=O)N1CCC[C@H]1C(=O)N[C@@H](C)C(=O)N[C@@H](CC(N)=O)C(=O)N[C@@H](CCCCN)C(=O)Nc1ccc2c(CC(N)=O)cc(=O)oc2c1` [Ac-PANK-ACC] (Ac-PANK-{ACC}), for which the Michaelis-Menten constant (Km) in data set [2] was determined as 111 ± 9.8 µM; in [3], 133 ± 15.6 µM.

Consider `CC(=O)N[C@@H](CC(C)C)C(=O)NCC(=O)N1CCC[C@H]1C(=O)N[C@@H](CCCCN)C(=O)Nc1ccc2c(CC(N)=O)cc(=O)oc2c1` [Ac-Leu-Gly-Pro-Lys--ACC] (Ac-LGPK-{ACC}), for which the Km in data set [1] is 195 ± 30 µM.

Take “7-Nle-Thr-Pro-Lys-AMC [reference compound]”: in [5], the “λmax, em” value stood at 390 nm; the “λmax, ex” value is reported as 330 nm; the RFU/nM1 is 3.3 RFU/nM; the RFU/nM2 was 2.2 RFU/nM.

On to `CC(=O)N[C@@H](CC(C)C)C(=O)NCC(=O)N1CCC[C@H]1C(=O)N[C@@H](CCCCN)C(=O)Nc1ccc2c(C)cc(=O)oc2c1` [Ac-Leu-Gly-Pro-Lys-AMC] (Ac-LGPK-{AMC}), for which, in data set [1], the Km came out at 160 ± 25 µM and the kcat stood at 2.3 ± 0.2 s⁻¹.

In the case of `CC(=O)N1CCC[C@H]1C(=O)N[C@@H](CCCNC(=N)N)C(=O)N[C@H](C(=O)N[C@@H](CCCCN)C(=O)Nc1ccc2c(CC(N)=O)cc(=O)oc2c1)[C@@H](C)O` [Ac-PRTK-ACC] (Ac-PRTK-{ACC}), the Km was 14.7 ± 1.4 µM in data set [2] and 23.4 ± 2.3 µM in data set [3].

Source of the values: patent publication US6680178B2, “Profiling of protease specificity using combinatorial fluorogenic substrate libraries” (The Regents of the University of California, priority 2000, dated 2004).
